Laboratory results: patent US10966995B2, “Use of secoisolariciresinol diglucosides (SDGS) and related compounds for protection against radiation and chemical damage” (THE TRUSTEES OF THE UNIVERSITY OF PENNSYLVANIA, priority 2014, dated 2021)

Tests used:
mouse epithelial cells = assay: BaP-induced ROS generation (redox-sensitive fluorescence dye); format: cell-based; conditions: 10 or 20 μM BaP; 0.1-5 μM SDG; 2 hours
Protocol: Exposure of murine epithelial cells to the tobacco and environmental carcinogen benzo-alpha-pyrene (BaP) induces damaging reactive oxygen species (ROS) as detected by a redox-sensitive fluorescence dye (FIG. 23). As early as 2 hours, post exposure to the carcinogen, a robust increase of fluorescence intensity indicates ROS generation in cells.

[1] = tested on: mouse lung epithelial cells; assay: Apoptosis detection by western blotting (Bax, Bcl-2, cleaved caspase-3, cleaved PARP); format: cell-based; conditions: SDG pre-treated vs irradiated cells
Protocol: Apoptosis was determined in mouse lung epithelial cells by levels of Bax (an apoptosis promoter), Bcl-2 (an apoptosis inhibitor), cleaved caspase-3, and cleaved poly (adenosine diphosphate-ribose) polymerase (PARP) seen using immunoblotting. Briefly, cells were lysed in PBS containing protease inhibitors. Immunoblot analysis of cell lysates was then performed using 10 well SDS 12% NuPAGE gel (Invitrogen, Carlsbad Calif.). Electrophoresis was performed at 200V for 1 hour. Transfer to PolyScreen PV transfer membrane (PerkinElmer Life Sciences, Boston, Mass.) was performed for 1 hour at 25 volts. Membrane was blocked overnight in 5% non-fat dry milk in phosphate buffered saline. The non-fat dry milk was then discarded and the membrane was incubated with primary antibody. Protein levels of Bax, Bcl-2, cleaved caspase-3, and cleaved PARP were detected using manufacturer recommended dilutions (Cell Signaling Technology, Danvers, Mass.) using rabbit anti-mouse monoclonal antibody against BAX and Bcl-2, and rabbit anti-mouse cleaved caspase-3 (Asp175), monoclonal antibody and a rabbit polyclonal anti-cleaved PARP (214/215) cleavage site specific antibody. The membrane was washed five times and then incubated in secondary antibody conjugated to horseradish peroxidase for 45 minutes at room temperature. Membranes were developed using Western Lighting Chemiluminescence Reagent Plus (PerkinElmer Life Sciences, Boston, Mass.) and quantified by densitometry scanning of specific bands (20 kDa for Bax, 26 kDa for Bcl-2, 17/19 kDa for cleaved caspase-3, and 89 kDa for cleaved PARP) that were adjusted for loading using β-actin expression level detected by specific secondary antibody (Sigma, St. Louis, Mo.).

[2] = tested on: AOE gene expression (HO-1, NQO1, GST); assay: AOE gene expression in lung in the pharmacokinetic study; format: in vivo, mouse; conditions: 100 mg SDG/Kg oral; p<0.05
Protocol: After selecting the 100 mg/kg dose as a dose that induces significant AOE expression while allowing for SDG to be detected in circulation, a pharmacokinetic study was performed to determine bioavailability and biological effects in target tissues (i.e., lung). Blood samples as well as tissues (lung, brain, liver, kidneys, spleen) were collected at 15 min, 30 min, and 1, 2, 4, 6, 8, 12 hours. SDG levels were determined as above in plasma and lung (FIGS. 41A-C). A single dose of 100 mg SDG/Kg was well absorbed and intact SDG was detectable in the circulation up to 6 hours post administration (FIG. 41A) and in flushed, blood-free lung tissues for 4 hours (FIG. 41B). […] The observed gene expression increase correlated with an increase in protein levels determined by western blotting (not shown). […] The use of SDG in human therapy is thus greatly facilitated and the toxicity risk is unlikely. Therefore a dose of 50-100 mg/Kg (1 or 2 mg SDG per day) is sufficient to induce the anticipated protective effects in target tissues and can be used for further study.

[3] = tested on: murine primary lung cells (epithelial cells, endothelial cells and fibroblasts); assay: Clonogenic survival of irradiated primary lung cells; format: cell-based, mouse
Protocol: (§1) Fibroblasts and endothelial cells were isolated from C57/bl6 mouse. For fibroblast isolation, mouse lungs were harvested, minced, and incubated with dispase (2 mg/ml) for 45 minutes. Pieces were plated out and fibroblasts were cultured as described previously and used between passages 3 and 10. Pulmonary microvascular endothelial cells (PMVEC) were isolated from murine lungs as described previously. Briefly, freshly harvested mouse lungs were treated with collagenase followed by isolation of cells by adherence to magnetic beads coated with mAb to platelet endothelial cell adhesion molecule (PECAM). Epithelial cells (C10) cells were originally derived from a normal BALB/c mouse lung explant and are non-tumorigenic, contact-inhibited, and have alveolar type 2 cell features at early passage.
Exponentially growing cells were plated as single cells and incubated overnight. Cells were treated with various doses of the lignan SDG (10-50 μM) 6 h prior to irradiation (2, 4, 6 and 8 Gy). Lignan dose was selected based on animal studies to be within the physiological levels reached in the blood circulation when 10% Flaxseed is ingested. Cells were irradiated with a Mark 1 cesium (Cs-137) irradiator (J. L. Shepherd, San Fernando, Calif.) at a dose rate of 1.7 Gy/min Colonies were stained and counted 10 to 15 days after irradiation and surviving fraction was calculated.

[4] = tested on: murine primary lung cells (epithelial, endothelial and WT fibroblasts); assay: Alkaline comet assay (DNA SSBs) in irradiated primary lung cells; format: cell-based, mouse; conditions: 2 Gy
Protocol: as §1
Exponentially growing cells were cultured and treated with SDG (50 μM) at different time intervals prior to irradiation (2 Gy). Cells were processed for comet assay as per manufacturer's instructions (Trevigen, Gaithersburg, Md.). […] At least 150 cells were scored per group. Visual analysis of cells and comet tail length was measured using Comet Image Analysis software (Comet Assay IV, Perceptive Instruments Ltd, Haverhill, UK) Images were captured on an Olympus IX51 fluorescence microscope using a monochrome CCD FireWire camera.

human epithelial cells = assay: BaP-induced oxidative DNA damage (gamma-H2AX levels); format: cell-based; conditions: SDG 5, 10, 25, 50 and 100 μM
Description: Similarly, SDG prevents genotoxic stress in human epithelial cells exposed to BaP. Exposure of cells to a potent carcinogen such as BaP, induces genotoxic stress as indicated by increased levels of p53 protein (FIG. 25). […] SDG also prevents oxidative DNA damages in human epithelial cells exposed to BaP. Exposure of cells to a potent carcinogen such as BaP, induces oxidative DNA damage as indicated by increased levels of gamma-H2AX, a marker for double-stranded DNA breaks (FIG. 26). […] Furthermore, SDG prevents DNA adduct formation in human epithelial cells exposed to BaP. Exposure of cells to a potent carcinogen such as BaP, induces the formation of DNA adducts (FIG. 27). DNA adducts are pieces of DNA covalently linked to a carcinogen and is directly linked to the development of malignancy. The DNA adduct levels is decreased by the presence of SDG or its metabolites ED and EL given alone or in combination.

## COc1cc(C[C@@H](CO[C@@H]2O[C@H](CO)[C@@H](O)[C@H](O)[C@H]2O)[C@H](CO[C@@H]2O[C@H](CO)[C@@H](O)[C@H](O)[C@H]2O)Cc2ccc(O)c(OC)c2)ccc1O [SDG, secoisolariciresinol diglucoside]
Mouse epithelial cells
  ROS: negligible levels
[1]
  Bax protein levels: trended towards decreased levels
  Bcl-2 protein levels: trended towards decreased levels
[1]; 6, 24, 48 hours post-IR
  Cleaved PARP levels: trended towards decreased levels
  Cleaved caspase-3 levels: trended towards decreased levels
[2]
  AOE gene expression levels (HO-1, NQO1, GST) over baseline: significantly elevated
[3]; SDG 10-50 μM alone, all three cell types, vs untreated control
  Colony forming ability, compound alone: did not elicit any adverse effect
[3]; SDG prior to irradiation, epithelial and endothelial cells (FIGS. 7A, 7B)
  Surviving fraction: enhanced significantly
[3]; fibroblasts, 6 h pre-treatment
  SDG concentration giving maximum protection against radiation-induced loss in clonogenicity: 50 µM
[4]; SDG 50 μM pre-treatment at all time intervals, all three cell types
  Radiation-induced comet tail length: significantly inhibited
[4]; SDG 50 μM, all cell types
  Pre-treatment time giving maximum protection against radiation-induced tail moment: 6 h
Human epithelial cells
  gamma-H2AX levels: mitigated dose-dependently
